Results from BindingDB's records for doi:10.1021/jm00124a027 (Syntex Research, 1989).

Test: Inhibition of thromboxane A2 synthetase as reduced ADP-induced aggregation of human platelet rich plasma in the presence of pig aortal microsomes

Row | IC50 | Compound
1 | 24000 nM | C/C(=C/c1ccc(Cc2cccnc2)n1-c1ccccc1)C(=O)O
2 | 9100 nM | C/C(=C\c1ccc(Cn2ccnc2)[nH]1)C(=O)O
3 | 44 nM | C/C(=C/c1cc(Cc2cccnc2)n(C(C)(C)C)c1)C(=O)O
4 | 50 nM | C/C(=C/c1ccc(Cc2cccnc2)n1C)C(=O)O
5 | 78000 nM | C/C(=C/c1ccc(Cc2cccnc2)n1CC(C)(C)C)C(=O)O
6 | 3800 nM | Cn1c(/C=C/C(=O)O)ccc1Cn1ccnc1
7 | 1000 nM | C/C(=C/c1ccc(Cn2ccnc2)n1C)C(=O)O
8 | 4600 nM | Cn1cc(/C=C/C(=O)O)cc1Cn1ccnc1
9 | 1600 nM | C/C(=C\c1cc(Cn2ccnc2)n(C)c1)C(=O)O
10 | 9100 nM | COC(=O)[C@@H]1CC1c1ccc(Cn2ccnc2)n1C (some centres not stated)
11 | 42 nM | CCn1c(/C=C(/C)C(=O)O)ccc1Cc1cccnc1
12 | 2100 nM | C/C(=C/c1ccc(Cc2cccnc2)n1C(C)C)C(=O)O
